Experimental data published in PubChem BioAssay AID248 (DTP/NCI, 2004).
Several values for one entry are separate records, joined by “and”; a condition that tells them apart may be missing. Identical values can stand only once. Inconclusive results and toxic doses are left out. No stated cut-off is given here; in the data, active means T/C of 150% or more; inactive means T/C below 125%. Peptide text beside a SMILES is read from it.

Test system: L1210 leukemia ip in BDF1 mice, survival T/C
Experiment: NCI In Vivo Anticancer Drug Screen. Data for tumor model L1210 Leukemia (intraperitoneal) in B6D2F1 (BDF1) mice
Conditions: endpoint: mean survival time, higher = longer survival
Outline: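 Mice bearing the transplanted tumor received compound or vehicle. Survival of the treated group was divided by that of the vehicle-treated control group to give the ratio.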

[1] = dose: 100.0 mg/kg/injection, schedule: Q01DX001 (ip), vehicle: saline
[2] = dose: 200.0 mg/kg/injection, schedule: Q01DX001 (ip), vehicle: saline
[3] = dose: 400.0 mg/kg/injection, schedule: Q01DX001 (ip), vehicle: saline
[4] = dose: 100.0 mg/kg/injection, schedule: Q04DX002 (ip), vehicle: Klucel (hydroxypropylcellulose) (HPC)
[5] = dose: 100.0 mg/kg/injection, schedule: Q04DX003 (ip), vehicle: Klucel (hydroxypropylcellulose) (HPC)
[6] = dose: 400.0 mg/kg/injection, schedule: Q04DX003 (ip), vehicle: Klucel (hydroxypropylcellulose) (HPC)
[7] = dose: 50.0 mg/kg/injection, schedule: Q01DX009 (ip), vehicle: Klucel (hydroxypropylcellulose) (HPC)
[8] = dose: 100.0 mg/kg/injection, schedule: Q01DX009 (ip), vehicle: saline with Tween-80
[9] = dose: 200.0 mg/kg/injection, schedule: Q01DX009 (ip), vehicle: saline with Tween-80
[10] = dose: 400.0 mg/kg/injection, schedule: Q01DX009 (ip), vehicle: saline with Tween-80
[11] = dose: 50.0 mg/kg/injection, schedule: Q01DX001 (ip), vehicle: saline
[12] = dose: 25.0 mg/kg/injection, schedule: Q04DX003 (ip), vehicle: Klucel (hydroxypropylcellulose) (HPC)
[13] = dose: 50.0 mg/kg/injection, schedule: Q04DX003 (ip), vehicle: Klucel (hydroxypropylcellulose) (HPC)
[14] = dose: 25.0 mg/kg/injection, schedule: Q01DX009 (ip), vehicle: water
[15] = dose: 50.0 mg/kg/injection, schedule: Q01DX009 (ip), vehicle: water
[16] = dose: 100.0 mg/kg/injection, schedule: Q01DX009 (ip), vehicle: Klucel (hydroxypropylcellulose) (HPC)
[17] = dose: 100.0 mg/kg/injection, schedule: Q04DX003 (ip), vehicle: water
[18] = dose: 200.0 mg/kg/injection, schedule: Q01DX009 (ip), vehicle: Klucel (hydroxypropylcellulose) (HPC)
[19] = dose: 200.0 mg/kg/injection, schedule: Q04DX003 (ip), vehicle: Klucel (hydroxypropylcellulose) (HPC)
[20] = dose: 100.0 mg/kg/injection, schedule: Q04DX003 (ip), vehicle: saline
[21] = dose: 200.0 mg/kg/injection, schedule: Q04DX003 (ip), vehicle: saline
[22] = dose: 400.0 mg/kg/injection, schedule: Q04DX003 (ip), vehicle: saline

Measured: T/C

OCC1OC(n2cnc3c(SCc4ccccn4)ncnc32)C(O)C1O (stereo not drawn)
inactive: [1] 101 % of control | [2] 113 % of control | [3] 115 % of control

CCc1cccc(CC)c1NC(=O)CCl
inactive: [4] 111 % of control | [5] 108 % of control | dose: 200.0 mg/kg/injection, schedule: Q04DX002 (ip), vehicle: Klucel (hydroxypropylcellulose) (HPC) 104 % of control | dose: 400.0 mg/kg/injection, schedule: Q04DX002 (ip), vehicle: Klucel (hydroxypropylcellulose) (HPC) 90 % of control | [6] 95 % of control

COC1/C=C/OC2(C)Oc3c(C)c(O)c4c(O)c(c(/C=N/N5CCN(Cc6ccccc6)CC5)c(O)c4c3C2=O)NC(=O)C(C)=C/C=C/C(C)C(O)C(C)C(O)C(C)C(OC(C)=O)C1C (stereo not drawn)
inactive: dose: 3.13 mg/kg/injection, schedule: Q01DX009 (ip), vehicle: Klucel (hydroxypropylcellulose) (HPC) 91 % of control | dose: 6.25 mg/kg/injection, schedule: Q01DX009 (ip), vehicle: Klucel (hydroxypropylcellulose) (HPC) 100 % of control | dose: 12.5 mg/kg/injection, schedule: Q01DX009 (ip), vehicle: Klucel (hydroxypropylcellulose) (HPC) 91 % of control | dose: 25.0 mg/kg/injection, schedule: Q01DX009 (ip), vehicle: Klucel (hydroxypropylcellulose) (HPC) 97 % of control | [7] 95 % of control and 110 % of control

c1ccc(CCc2ccncc2)cc1
inactive: [8] 87 % of control | [9] 88 % of control | [10] 86 % of control

CC(O)CNC1CCCCC1 (stereo not drawn)
inactive: dose: 75.0 mg/kg/injection, schedule: Q01DX001 (ip), vehicle: saline 92 % of control | dose: 150.0 mg/kg/injection, schedule: Q01DX001 (ip), vehicle: saline 100 % of control

O=C1OC(=O)c2ccc(S)c3cccc1c23
inactive: dose: 50.0 mg/kg/injection, schedule: Q01DX009 (ip), vehicle: saline with Tween-80 96 % of control | [8] 102 % of control | [9] 94 % of control and 101 % of control

COc1ccc(C2(OC)Oc3ccccc3C(=O)C2(O)OC)cc1OC (stereo not drawn)
inactive: [11] 105 % of control | [1] 103 % of control | [2] 100 % of control | [3] 97 % of control

CN=C(N/N=C/c1ccccc1)N(C)C
inactive: [12] 107 % of control | [13] 100 % of control | dose: 87.5 mg/kg/injection, schedule: Q04DX003 (ip), vehicle: Klucel (hydroxypropylcellulose) (HPC) 98 % of control

O=C(O)c1occ(Cl)c1Cl
inactive: [14] 101 % of control | [15] 105 % of control | [1] 103 % of control | [16] 97 % of control | dose: 100.0 mg/kg/injection, schedule: Q01DX009 (ip), vehicle: water 91 % of control | [17] 102 % of control | [2] 101 % of control | [18] 95 % of control | dose: 200.0 mg/kg/injection, schedule: Q04DX003 (ip), vehicle: water 90 % of control

N#Cc1cc2c3ccccc3ncc2c2ccccc12
inactive: [5] 91 % of control | [18] 96 % of control | [19] 89 % of control | [6] 89 % of control

Nc1c(Cl)ncnc1Nc1ccc(O)cc1
inactive: [12] 96 % of control | [13] 96 % of control | [5] 101 % of control

O=C(O)C(=O)NCc1cnccn1
inactive: [14] 96 % of control | [15] 97 % of control | [17] 96 % of control

COC(=O)c1[nH]ncc1N=NN(C)C
inactive: dose: 176.0 mg/kg/injection, schedule: Q01DX001 (ip), vehicle: carboxymethylcellulose (CMC) 111 % of control | dose: 264.0 mg/kg/injection, schedule: Q01DX001 (ip), vehicle: carboxymethylcellulose (CMC) 120 % of control | dose: 400.0 mg/kg/injection, schedule: Q01DX001 (ip), vehicle: carboxymethylcellulose (CMC) 113 % of control

NC1=CC(=O)C(=O)c2cccnc21
inactive: dose: 75.0 mg/kg/injection, schedule: Q01DX001 (ip), vehicle: other 92 % of control

Oc1ccc2ccc(O)c(C(NC(O)c3ccccc3)c3ccccc3)c2c1C(NC(O)c1ccccc1)c1ccccc1 (stereo not drawn)
inactive: dose: 10.0 mg/kg/injection, schedule: Q01DX001 (ip), vehicle: saline 96 % of control | dose: 20.0 mg/kg/injection, schedule: Q01DX001 (ip), vehicle: saline 96 % of control | dose: 40.0 mg/kg/injection, schedule: Q01DX001 (ip), vehicle: saline 93 % of control

C=CCN(CC=C)C(=S)Nc1cccc(Cl)c1
inactive: dose: 100.0 mg/kg/injection, schedule: Q01DX001 (ip), vehicle: other 103 % of control | dose: 200.0 mg/kg/injection, schedule: Q01DX001 (ip), vehicle: other 100 % of control | dose: 400.0 mg/kg/injection, schedule: Q01DX001 (ip), vehicle: other 100 % of control

O=S(=O)(O)c1cccc(N=Nc2c(S(=O)(=O)O)cc3cc(S(=O)(=O)O)c(N=Nc4cccc(S(=O)(=O)O)c4)c(O)c3c2O)c1
inactive: [8] 109 % of control | [20] 116 % of control | [9] 97 % of control | [21] 111 % of control | [10] 108 % of control | [22] 103 % of control

Nc1ncnc(N)c1N(C=O)Cc1ccccc1
inactive: dose: 100.0 mg/kg/injection, schedule: Q01DX001 (ip), vehicle: acetone 96 % of control | dose: 200.0 mg/kg/injection, schedule: Q01DX001 (ip), vehicle: acetone 94 % of control | dose: 400.0 mg/kg/injection, schedule: Q01DX001 (ip), vehicle: acetone 91 % of control

Cc1nc(N)[nH]c(=O)c1CCCNS(=O)(=O)c1ccc(N)cc1
inactive: [11] 100 % of control | [1] 97 % of control | [2] 100 % of control | [3] 94 % of control

NC(CCC(=O)O)C(=O)NC(CC(=O)O)C(=O)O (stereo not drawn) (H-Glu-Asp-OH; configuration not given here)
inactive: dose: 12.5 mg/kg/injection, schedule: Q04DX002 (ip), vehicle: Klucel (hydroxypropylcellulose) (HPC) 90 % of control | dose: 25.0 mg/kg/injection, schedule: Q04DX002 (ip), vehicle: Klucel (hydroxypropylcellulose) (HPC) 105 % of control | dose: 50.0 mg/kg/injection, schedule: Q04DX002 (ip), vehicle: Klucel (hydroxypropylcellulose) (HPC) 98 % of control | [4] 94 % of control

COCCOC(=O)CCCCC(=O)OCCOC
inactive: [20] 107 % of control | [21] 100 % of control | [22] 94 % of control

COC(=O)c1cc(C)cc(N(c2ccccc2N)S(=O)(=O)c2ccc(C)cc2)c1C
inactive: [1] 92 % of control | [2] 92 % of control

Nc1ncnc2nc(N=Nc3ccc(C(=O)O)c(O)c3)[nH]c12
inactive: [5] 96 % of control | [19] 105 % of control | [6] 102 % of control

CSc1nccnc1C
inactive: [7] 119 % of control | [16] 96 % of control | [18] 105 % of control

CSC(=S)NNC(=O)c1ccc(C(F)(F)F)cc1
inactive: dose: 10.0 mg/kg/injection, schedule: Q04DX003 (ip), vehicle: saline 106 % of control | dose: 20.0 mg/kg/injection, schedule: Q04DX003 (ip), vehicle: saline 106 % of control | dose: 40.0 mg/kg/injection, schedule: Q04DX003 (ip), vehicle: saline 105 % of control
